Assay results taken from patent US7682785B2, “Method for predicting effectiveness of chemotherapy using anticancer agent” (Sysmex Corporation, priority 2005, dated 2010).
Where “and” joins values, the source holds several entries; their conditions need not be identical. Equal entries are not always repeated.

Key:
[1] = tested on: human-derived breast cancer cultured cells (cell A); test: Effect of anticancer agent therapy for cancerous mice (change in tumor size), cell A heterograft; type: in vivo; conditions: cell A implanted subcutaneously in mice; 20 mg/kg once a day for 5 days; tumor size to the 11th day
Procedure: (§1) 5 kinds of human-derived breast cancer cultured cells (cells A to E) were subcutaneously implanted on the backs of forty-six mice (No. 1 to 46). The mice were raised for 21 to 28 days to engraft the breast cancer cells. […] Upon lapse of 24 hours after the administration, tissues (about 50 mg) in the size of 2.5 mm×2.5 mm was cut from the back of each mouse. Each of the tissues were homogenized using an electric homogenizer to dissolve dissolvable components in a buffer solution containing 0.1 w/v % nonidet P-40 (NP-40) (Calbiochem), 50 mM tris-HCl (pH: 7.4), 5 mM EDTA, 50 mM sodium fluoride, 1 mM sodium orothovanadate, and 100 μl/ml of protease inhibitor cocktail (Sigma, St. Louis, Mo.).
(§2) The tumor size was measured from the start of the administration to the 11th day after the start of the administration. The chemotherapeutic effectiveness was classified, according to the change in tumor size, into Type I (high chemosensitivity), Type II (medium chemosensitivity), Type III (slightly low chemosensitivity), and Type IV (low chemosensitivity). […] The classification results are shown in the column of “Effect of therapy” in Table 1.

[2] = tested on: human-derived breast cancer cultured cells (cell B); test: Effect of anticancer agent therapy for cancerous mice (change in tumor size), cell B heterograft; type: in vivo; conditions: cell B implanted subcutaneously in mice; 20 mg/kg once a day for 5 days; tumor size to the 11th day
Procedure: as §1, §2

[3] = tested on: human-derived breast cancer cultured cells (cell C); test: Effect of anticancer agent therapy for cancerous mice (change in tumor size), cell C heterograft; type: in vivo; conditions: cell C implanted subcutaneously in mice; 20 mg/kg once a day for 5 days; tumor size to the 11th day
Procedure: as §1, §2

[4] = tested on: human-derived breast cancer cultured cells (cell D); test: Effect of anticancer agent therapy for cancerous mice (change in tumor size), cell D heterograft; type: in vivo; conditions: cell D implanted subcutaneously in mice; 20 mg/kg once a day for 5 days; tumor size to the 11th day
Procedure: as §1, §2

[5] = tested on: human-derived breast cancer cultured cells (cell E); test: Effect of anticancer agent therapy for cancerous mice (change in tumor size), cell E heterograft; type: in vivo; conditions: cell E implanted subcutaneously in mice; 20 mg/kg once a day for 5 days; tumor size to the 11th day
Procedure: as §1, §2

[6] = tested on: CDK2; test: CDK2 specific activity in tumor tissue lysate of mouse heterograft after paclitaxel administration; type: in vivo, human; conditions: 24 hours after 20 mg/kg single administration, one value per mouse
Procedure: A tissue specimen containing target tumor cells was prepared in a 1.5 ml-Eppendorf tube so that 100 μg lysate in terms of total protein mass was dissolved in a buffer solution of 500 μl. […] After the addition, the solution was reacted at 4° C. for 1 hour. Thereafter, the beads were washed with a buffer solution (0.1% NP-40 and 50 mM tris-HCl adjusted pH 7.0) three times, followed by re-suspension in a kinase buffer of 15 μl. Thus, a sample containing the beads to which the target CDK binds was yielded.
(§3) In the sample, all the CDK (hereinafter, if distinction is not necessary, simply called as “CDKs”) including CDK itself, activated CDK to which cycline binds, complexes of activated CDK and CDK inhibitor, and complexes of CDK and CDK inhibitor were bound to the antibodies, thereby fixing the CDKs to the beads. The activity of the CDKs in the sample was measured by the following measurement method.
(§4) Prepared was a substrate solution containing 5 mM adenosine 5′-O-([…]) (ATP-γS (Sigma)), a buffer solution (20 mM tris-HCl (pH: 7.4), 0.1% Triton-X-100), and 10 μg histon H1 (Upstate Biotechnology, Lake Placid, N.Y.) as a substrate for CDK1 and CDK2. The substrate solution was added to the aforementioned sample solution containing the CDKs up to the total volume of 50 μl. The resulting sample solution was shaken for 10 minutes at 37° C. for incubation. As shown by the following formula, serine or threonine residue in the substrate was phosphorylated by the activated CDK, and monothiophosphorylated substrate was yielded.
(§5) After the reaction, the sample solution was centrifuged at 20,000 rpm for 20 seconds to precipitate the beads, and 18 μl of a supernatant in which monothiophosphates were dissolved was obtained. To 18 μl of the supernatant, added was 15 μl of a buffer solution (150 mM tris-HCl (pH: 9.2) and 5 mM EDTA). Further, the resultant solution was incubated in 10 mM iodoacetyl biotin solution (100 mM tris-HCl (pH: 7.5) and 1 mM EDTA) in a dark place for 90 minutes at room temperature. Thereby, sulfur ions in the thiophosphates in the monothiophosphorylated substrate were labeled by biotinylation. The reaction of the iodoacetyl biotin with the thiophosphates was stopped by adding […].
(§6) 0.4 μg of the biotinylated thiophosphorylated substrate was blotted on a PVDF membrane by using a slot blotter for adsorption. The blotted membrane was blocked with 1% of bovine serum albumin (BSA) for 30 minutes, followed by reaction with avidin-FITC (Vector, Burlingame, Calif.) at 37° C. for 1 hour. Thereafter, the membrane was washed with 50 mM TBS (25 mM tris-HCl (pH: 7.4) and 150 mM NaCl) for 10 minutes three times. After the washing, the image on the membrane was analyzed by a fluorescent image analyzer (Bio-Rad, Calif. U.S.A.). The activity of the CDKs was calculated based on a standard curve.
(§7) The standard curve was created by adsorbing a protein (biotinylated immunoglobulin) of a known amount to a PVDF membrane, labeling the protein with FITC in the same manner as mentioned above, and measuring the fluorescent intensity of the protein by the fluorescent image analyzer (Bio-Rad). 1 U of the CDK activity to be measured is a value representing the fluorescent intensity substantially equivalent to the fluorescent amount of the target protein of 1 ng.
An initialized PVDF membrane (Millipore, Billerica, Mass.) obtained by immersing the membrane in TBS (25 mM tris-HCl (pH: 7.4) and 150 mM NaCl) was set to a well plate for slot blotter. […]

[7] = tested on: p21; test: Expression level of p21 (WAF1 ELISA) in tumor tissue lysate of mouse heterograft after paclitaxel administration; type: in vivo, human; set-up: unit not given here; conditions: 24 hours after 20 mg/kg single administration, one value per mouse
Procedure: Expression level of p21 is measured using CALIBIOCHEM p21 WAF 1 ELISA kit (EMD Bioscience Inc.).
WAF1 sample solutions (mixture solutions of specimen and WAF1 standard solution containing lyophilized WAF1) were prepared by diluting the WAF1 standard solution (20 unit/ml lyophilized WAF1) stepwise with the cell lysate as the specimen. In each of the sample solutions, the cell lysate was diluted 4-times or more.
Into 96-well plastic plate in which rabbit polyclonal antibodies (primary antibody) specific to WAF1 was coated, 100 μl each of the WAF1 sample solution and the WAF1 standard solution were individually seeded into the wells. The well plate was sealed and incubated at room temperature for 2 hours for reaction with the primary antibody.
After the well plate was washed with a cleaning buffer, which was prepared by adding 25 ml of a 20-times concentrated solution to 475 ml de-ionized water, three times, 100 μl of antibodies (biotinylated anti-WAF1 monoclonal antibodies) for detection of […] were added to each well. Thereafter, the well plate was sealed and allowed to react at room temperature for 1 hour.
After the reaction, the well plate was washed with the cleaning buffer three times, and then, 100 μl of a peroxidase-conjugated streptavidine diluent was added into each well, and the mixture was stirred moderately. Thereafter, the well plate was sealed and allowed to react at room temperature for 30 minutes. After reaction, unbound peroxidase-conjugated streptavidine was removed by washing with the cleaning buffer three times. And then, 100 μl of a substrate solution (pigment source substrate) was added into each well, and the mixture was reacted at room temperature for 30 minutes. Upon lapse of 30 minutes after the addition, 100 μl of a stop solution (2.5 N sulfuric acid) was poured into each well to stop the reaction. Then, absorbance of each well's contents was measured using a plate reader at dual wavelength of 450/540 nm.
The concentration of p21WAF1 in the WAF1 sample solutions was calculated based on a standard curve of the WAF1 standard solution.
as §1
After removing insoluble components by centrifuging at 15,000 rpm for 5 minutes at 4 ° C., the obtained supernatants (cell lysates) were used as specimens.
Activity and expression level of CDK1 and CDK2 respectively were measured with respect to the specimens obtained in the experiment (1) in accordance with the aforementioned measurement method, and the specific activity of CDK1 and the specific activity of CDK2 in the specimens were calcurated. Also, the expression level of p21 in the specimens was measured in accordance with the aforementioned measurement method.

[8] = tested on: CDK1; test: CDK1 specific activity in tumor tissue lysate of mouse heterograft after paclitaxel administration; type: in vivo, human; conditions: 24 hours after 20 mg/kg single administration, one value per mouse
Procedure: A tissue specimen containing target tumor cells was prepared in a 1.5 ml-Eppendorf tube so that 100 μg lysate in terms of total protein mass was dissolved in a buffer solution of 500 μl. To the buffer solution, added were sepharose beads (Bio-Rad, Calif., U.S.A.) coated with 20 μl of a protein A and 2 μg of antibodies specific to the CDK whose activity was to be measured, i.e. polyclonal anti-CDK1-antibodies or polyclonal anti-CDK2-antibodies (Santa Cruz Biotechnology, Santa Cruz, Calif.). After the addition, the solution was reacted at 4° C. for 1 hour. Thereafter, the beads were washed with a buffer solution (0.1% NP-40 and 50 mM tris-HCl adjusted pH 7.0) three times, followed by re-suspension in a kinase buffer of 15 μl. Thus, a sample containing the beads to which the target CDK binds was yielded.
as §3, §4, §5
as §6, with “Thereafter, the membrane was washed with 50 mM TBS (25 mM tris-HCl (pH: 7.4) and 150 mM NaCl) for 10 minutes three times.” left out
as §7, with “ng. […]” for “ng.”

Q: What does the source list for `CC(=O)O[C@H]1C(=O)[C@@]2(C)[C@H]([C@H](OC(=O)c3ccccc3)[C@]3(O)C[C@H](OC(=O)[C@H](O)[C@@H](NC(=O)c4ccccc4)c4ccccc4)C(C)=C1C3(C)C)[C@]1(OC(C)=O)CO[C@@H]1C[C@@H]2O` [paclitaxel]?
A: Therapy using anticancer agent: Effect of therapy [1]: Type I; Therapy using anticancer agent: Effect of therapy [2]: Type II; Therapy using anticancer agent: Effect of therapy [3]: Type II; Therapy using anticancer agent: Effect of therapy [4]: Type III; Therapy using anticancer agent: Effect of therapy [5]: Type IV; Specific activity of CDK2 ([6]; cell A tumor tissue): 734.6 mU/ng and 634.1 mU/ng and 1083.2 mU/ng and 766.4 mU/ng and 407.1 mU/ng and 574.5 mU/ng and 545.0 mU/ng; Specific activity of CDK2 ([6]; cell B tumor tissue): 156.2 mU/ng and 192.8 mU/ng and 109.1 mU/ng and 328.6 mU/ng and 64.8 mU/ng and 130.5 mU/ng and 171.6 mU/ng and 140.3 mU/ng and 157.9 mU/ng and 92.1 mU/ng and 41.9 mU/ng; Specific activity of CDK2 ([6]; cell C tumor tissue): 163.6 mU/ng and 213.3 mU/ng and 209.9 mU/ng and 341.2 mU/ng and 106.9 mU/ng and 206.6 mU/ng and 140.6 mU/ng and 98.6 mU/ng and 114.8 mU/ng and 201.8 mU/ng and 129.9 mU/ng and 151.0 mU/ng and 138.8 mU/ng and 187.9 mU/ng and 124.6 mU/ng and 136.6 mU/ng; Specific activity of CDK2 ([6]; cell D tumor tissue): 0.0 mU/ng (4×) and 80.1 mU/ng and 23.6 mU/ng; Specific activity of CDK2 ([6]; cell E tumor tissue): 55.7 mU/ng and 50.2 mU/ng and 59.1 mU/ng and 0.0 mU/ng and 56.4 mU/ng; Expression level of p21 ([7]; cell A tumor tissue): 1.43 and 1.34 and 1.93 and 1.28 and 0.00 and 0.86 and 1.26; Expression level of p21 ([7]; cell B tumor tissue): 4.09 and 4.61 and 5.18 and 5.25 and 5.41 and 5.57 and 5.33 and 5.00 and 3.42 and 4.33 and 5.43; Expression level of p21 ([7]; cell C tumor tissue): 1.06 and 1.44 and 0.00 (7×) and 1.31 and 0.85 and 0.77 and 0.64 and 0.57 and 0.53 and 0.29; Expression level of p21 ([7]; cell D tumor tissue): 8.76 and 7.21 and 7.62 and 7.34 and 6.39 and 5.40 and 0.74; Expression level of p21 ([7]; cell E tumor tissue): 34.45 and 10.96 and 15.33 and 17.25 and 15.25; Specifc activity of CDK1 ([8]; cell A tumor tissue): 11.79 mU/ng and 10.83 mU/ng and 17.50 mU/ng and 21.77 mU/ng and 16.12 mU/ng and 16.82 mU/ng and 13.55 mU/ng; Specifc activity of CDK1 ([8]; cell B tumor tissue): 27.00 mU/ng and 31.56 mU/ng and 20.53 mU/ng and 13.39 mU/ng and 33.32 mU/ng and 32.01 mU/ng and 34.33 mU/ng and 34.21 mU/ng and 35.27 mU/ng and 25.40 mU/ng and 13.90 mU/ng; Specifc activity of CDK1 ([8]; cell C tumor tissue): 25.48 mU/ng and 11.25 mU/ng and 22.64 mU/ng and 39.14 mU/ng and 21.35 mU/ng and 11.22 mU/ng and 13.77 mU/ng and 7.06 mU/ng and 16.60 mU/ng and 11.60 mU/ng and 15.29 mU/ng and 12.58 mU/ng and 41.80 mU/ng and 60.36 mU/ng and 36.09 mU/ng and 30.85 mU/ng; Specifc activity of CDK1 ([8]; cell D tumor tissue): 10.75 mU/ng and 0.00 mU/ng and 7.10 mU/ng and 6.48 mU/ng and 22.16 mU/ng and 9.68 mU/ng and 10.04 mU/ng; Specifc activity of CDK1 ([8]; cell E tumor tissue): 9.81 mU/ng and 2.45 mU/ng and 8.76 mU/ng and 7.92 mU/ng and 8.29 mU/ng
